# Several values for one entry are separate records, joined by “and”; a condition that tells them apart may be missing. Equal values may be shown once. Records with an inconclusive call do not appear.
# Tested on: CD8F1 mice, subcutaneous mammary adenocarcinoma, T/C%
# Assay: NCI In Vivo Anticancer Drug Screen. Data for tumor model Mammary Adenocarcinoma CD8F1 (subcutaneous) in CD8F1
# Conditions: higher = larger tumour
# Method in brief: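 Transplantable tumors were established in mice, animals were dosed with compound or vehicle, and survival or tumor size was then measured in both groups. The treated result was divided by the control result.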
# [1] = endpoint: median tumor weight (est.), dose: 25.0 mg/kg/injection, schedule: Q07DX005 (ip), vehicle: Klucel (hydroxypropylcellulose) (HPC)
# [2] = endpoint: median tumor weight (est.), dose: 50.0 mg/kg/injection, schedule: Q07DX005 (ip), vehicle: Klucel (hydroxypropylcellulose) (HPC)
# [3] = endpoint: median tumor weight (est.), dose: 100.0 mg/kg/injection, schedule: Q07DX005 (ip), vehicle: Klucel (hydroxypropylcellulose) (HPC)
# [4] = endpoint: median tumor weight (est.), dose: 12.5 mg/kg/injection, schedule: Q07DX005 (ip), vehicle: saline with Tween-80
# [5] = endpoint: median tumor weight (est.), dose: 1.56 mg/kg/injection, schedule: Q07DX005 (ip), vehicle: saline
# [6] = endpoint: median tumor weight (est.), dose: 6.25 mg/kg/injection, schedule: Q07DX005 (ip), vehicle: saline
structure (smiles),measurement,setting,value
CCNC(=O)[B-][N+](C)(C)C,T/C,"endpoint: median tumor weight change, dose: 50.0 mg/kg/injection, schedule: Q01DX001 (ip), vehicle: Klucel (hydroxypropylcellulose) (HPC)",101 % of control
same,T/C,"endpoint: median tumor weight change, dose: 100.0 mg/kg/injection, schedule: Q01DX001 (ip), vehicle: Klucel (hydroxypropylcellulose) (HPC)",108 % of control
same,T/C,"endpoint: median tumor weight change, dose: 200.0 mg/kg/injection, schedule: Q01DX001 (ip), vehicle: Klucel (hydroxypropylcellulose) (HPC)",97 % of control
same,T/C,"endpoint: median tumor weight change, dose: 400.0 mg/kg/injection, schedule: Q01DX001 (ip), vehicle: Klucel (hydroxypropylcellulose) (HPC)",72 % of control
Cc1c(N)nc(C(CC(N)=O)NCC(N)C(N)=O)nc1C(=O)NC(C(=O)NC(C)C(O)CC(=O)NC(C(=O)NC(OC1OC(C)C(N)C(O)C1O)C(O)c1nc(-c2nc(C(=O)NCCCC(N)CC(=O)NCCCNCCCCN)cs2)cs1)C(C)O)C(OC1OC(CO)C(O)C(O)C1OC1OC(CO)C(O)C(OC(N)=O)C1O)c1cnc[nH]1 (stereo unspecified),T/C,"endpoint: median tumor weight (est.), dose: 2.0 mg/kg/injection, schedule: Q07DX005 (ip), vehicle: saline",15 % of control
same,T/C,"endpoint: median tumor weight (est.), dose: 4.0 mg/kg/injection, schedule: Q07DX005 (ip), vehicle: saline",20 % of control
same,T/C,"endpoint: median tumor weight (est.), dose: 8.0 mg/kg/injection, schedule: Q07DX005 (ip), vehicle: saline",10 % of control
COc1cccc2c1C(=O)c1c(O)c3c(c(O)c1C2=O)CC(O)(/C(C)=N/NC(=O)CCCCC(=O)N/N=C(\C)C1(O)Cc2c(O)c4c(c(O)c2C(OC2CC(N)C(O)C(C)O2)C1)C(=O)c1c(OC)cccc1C4=O)CC3OC1CC(N)C(O)C(C)O1 (stereo unspecified),T/C,"endpoint: median tumor weight change, dose: 16.0 mg/kg/injection, schedule: Q01DX001 (ip), vehicle: water",113 % of control
same,T/C,"endpoint: median tumor weight change, dose: 31.0 mg/kg/injection, schedule: Q01DX001 (ip), vehicle: water",36 % of control
O=C1CN(CCN2CC(=O)N(CN3CCOCC3)C(=O)C2)CC(=O)N1CN1CCOCC1,T/C,"endpoint: median tumor weight change, dose: 15.62 mg/kg/injection, schedule: Q01DX001 (ip), vehicle: water",53 % of control
same,T/C,"endpoint: median tumor weight change, dose: 31.25 mg/kg/injection, schedule: Q01DX001 (ip), vehicle: water",64 % of control
same,T/C,"endpoint: median tumor weight change, dose: 62.5 mg/kg/injection, schedule: Q01DX001 (ip), vehicle: water",96 % of control
same,T/C,"endpoint: median tumor weight change, dose: 125.0 mg/kg/injection, schedule: Q01DX001 (ip), vehicle: water",40 % of control
O=NN(CCF)C(=O)NC1CCCCC1,T/C,"endpoint: median tumor weight change, dose: 4.0 mg/kg/injection, schedule: Q01DX001 (ip), vehicle: Klucel (hydroxypropylcellulose) (HPC)",87 % of control
same,T/C,"endpoint: median tumor weight change, dose: 16.0 mg/kg/injection, schedule: Q01DX001 (ip), vehicle: Klucel (hydroxypropylcellulose) (HPC)",44 % of control
same,T/C,"endpoint: median tumor weight change, dose: 31.0 mg/kg/injection, schedule: Q01DX001 (ip), vehicle: Klucel (hydroxypropylcellulose) (HPC)",45 % of control
same,T/C,"endpoint: median tumor weight change, dose: 62.5 mg/kg/injection, schedule: Q01DX001 (ip), vehicle: Klucel (hydroxypropylcellulose) (HPC)",30 % of control
CC1/C=C/C=C/CC/C=C/C=C/C=C/C=C/C(OC2OC(C)C(O)C(N)C2O)CC2OC(CC(O)C(O)CCC(O)CC(O)CC(O)CC(=O)OC(C)C(C)C1O)CC(O)C2C(=O)O (stereo unspecified),T/C,"endpoint: median tumor weight change, dose: 31.25 mg/kg/injection, schedule: Q01DX001 (ip), vehicle: saline with Tween-80",124 % of control
same,T/C,"endpoint: median tumor weight change, dose: 62.5 mg/kg/injection, schedule: Q01DX001 (ip), vehicle: saline with Tween-80",84 % of control
N#CCCN(C(=S)Nc1cccc(C(F)(F)F)c1)C1CCCCC1,T/C,[1],66 % of control
same,T/C,[2],116 % of control
same,T/C,[3],75 % of control
same,T/C,"endpoint: median tumor weight (est.), dose: 200.0 mg/kg/injection, schedule: Q07DX005 (ip), vehicle: Klucel (hydroxypropylcellulose) (HPC)",60 % of control
same,T/C,"endpoint: median tumor weight (est.), dose: 400.0 mg/kg/injection, schedule: Q07DX005 (ip), vehicle: Klucel (hydroxypropylcellulose) (HPC)",38 % of control
same,T/C,"endpoint: median tumor weight (est.), dose: 800.0 mg/kg/injection, schedule: Q07DX005 (ip), vehicle: Klucel (hydroxypropylcellulose) (HPC)",60 % of control
CC(C)NC(=O)OCc1c(COC(=O)NC(C)C)c(-c2ccc(Cl)c(Cl)c2)n2c1CCC2,T/C,"endpoint: median tumor weight (est.), dose: 12.5 mg/kg/injection, schedule: Q07DX005 (ip), vehicle: distilled water + Tween-80",67 % of control
same,T/C,"endpoint: median tumor weight (est.), dose: 25.0 mg/kg/injection, schedule: Q07DX005 (ip), vehicle: distilled water + Tween-80",120 % of control
same,T/C,"endpoint: median tumor weight (est.), dose: 50.0 mg/kg/injection, schedule: Q07DX005 (ip), vehicle: distilled water + Tween-80",21 % of control
same,T/C,"endpoint: median tumor weight (est.), dose: 100.0 mg/kg/injection, schedule: Q07DX005 (ip), vehicle: distilled water + Tween-80",6 % of control
O=NN(CCCl)C(=O)NC1[C@H](O)CCC[C@@H]1O (stereo partly specified),T/C,"endpoint: median tumor weight change, dose: 6.25 mg/kg/injection, schedule: Q01DX001 (ip), vehicle: saline",71 % of control and 73 % of control
same,T/C,"endpoint: median tumor weight change, dose: 12.5 mg/kg/injection, schedule: Q01DX001 (ip), vehicle: saline",15 % of control and 17 % of control
same,T/C,"endpoint: median tumor weight change, dose: 25.0 mg/kg/injection, schedule: Q01DX001 (ip), vehicle: saline",6 % of control
Cc1ccc(S(=O)(=O)NC(=S)S)cc1,T/C,[4],110 % of control
same,T/C,"endpoint: median tumor weight (est.), dose: 25.0 mg/kg/injection, schedule: Q07DX005 (ip), vehicle: saline with Tween-80",94 % of control
same,T/C,"endpoint: median tumor weight (est.), dose: 100.0 mg/kg/injection, schedule: Q07DX005 (ip), vehicle: saline with Tween-80",91 % of control
same,T/C,"endpoint: median tumor weight (est.), dose: 200.0 mg/kg/injection, schedule: Q07DX005 (ip), vehicle: saline with Tween-80",95 % of control
same,T/C,"endpoint: median tumor weight (est.), dose: 400.0 mg/kg/injection, schedule: Q07DX005 (ip), vehicle: saline with Tween-80",106 % of control
Cc1cc(NCCCCCCNc2cc(C)nc3cc(N(C)C)ccc23)c2ccc(N(C)C)cc2n1,T/C,"endpoint: median tumor weight change, dose: 31.0 mg/kg/injection, schedule: Q01DX001 (ip), vehicle: distilled water + Tween-80 + alcohol",42 % of control
same,T/C,"endpoint: median tumor weight change, dose: 62.0 mg/kg/injection, schedule: Q01DX001 (ip), vehicle: distilled water + Tween-80 + alcohol",103 % of control
same,T/C,"endpoint: median tumor weight change, dose: 125.0 mg/kg/injection, schedule: Q01DX001 (ip), vehicle: distilled water + Tween-80 + alcohol",36 % of control
Cn1cnc([N+](=O)[O-])c1S(=O)(=O)NCN1CCOCC1,T/C,"endpoint: median tumor weight (est.), dose: 12.5 mg/kg/injection, schedule: Q07DX005 (ip), vehicle: Klucel (hydroxypropylcellulose) (HPC)",103 % of control
same,T/C,[1],164 % of control and 185 % of control
same,T/C,[2],71 % of control
same,T/C,[3],82 % of control and 95 % of control
OC1(CSc2ccccc2)CCCCC1,T/C,"endpoint: median tumor weight change, dose: 1000.0 mg/kg/injection, schedule: Q01DX001 (ip), vehicle: saline with Tween-80",13 % of control
O=C1C=C(C2OC(CO)C(O)C2O)C(=O)N1 (stereo unspecified),T/C,[5],73 % of control
same,T/C,[6],114 % of control
CCOC(=O)c1[nH]c2cccc3c2c1CC(Br)C3=O (stereo unspecified),T/C,"endpoint: median tumor weight change, dose: 125.0 mg/kg/injection, schedule: Q01DX001 (ip), vehicle: saline with Tween-80",86 % of control
same,T/C,"endpoint: median tumor weight change, dose: 250.0 mg/kg/injection, schedule: Q01DX001 (ip), vehicle: saline with Tween-80",52 % of control
CSc1ncc2ncn(C3OC(CO)C(O)C3O)c2n1 (stereo unspecified),T/C,"endpoint: median tumor weight change, dose: 250.0 mg/kg/injection, schedule: Q01DX001 (ip), vehicle: Klucel (hydroxypropylcellulose) (HPC)",92 % of control
same,T/C,"endpoint: median tumor weight change, dose: 500.0 mg/kg/injection, schedule: Q01DX001 (ip), vehicle: Klucel (hydroxypropylcellulose) (HPC)",110 % of control
same,T/C,"endpoint: median tumor weight change, dose: 1000.0 mg/kg/injection, schedule: Q01DX001 (ip), vehicle: Klucel (hydroxypropylcellulose) (HPC)",57 % of control
CCOC(=O)NC1=C(N2CC2)C(=O)C(NC(=O)OCC)=C(N2CC2)C1=O,T/C,"endpoint: median tumor weight (est.), dose: 0.78 mg/kg/injection, schedule: Q07DX005 (ip), vehicle: saline",36 % of control
same,T/C,"endpoint: median tumor weight (est.), dose: 1.56 mg/kg/injection, schedule: Q07DX005 (ip), vehicle: saline with Tween-80",53 % of control
same,T/C,[5],36 % of control
same,T/C,"endpoint: median tumor weight (est.), dose: 3.12 mg/kg/injection, schedule: Q07DX005 (ip), vehicle: saline with Tween-80",59 % of control
same,T/C,"endpoint: median tumor weight (est.), dose: 3.12 mg/kg/injection, schedule: Q07DX005 (ip), vehicle: saline",56 % of control
same,T/C,"endpoint: median tumor weight (est.), dose: 6.25 mg/kg/injection, schedule: Q07DX005 (ip), vehicle: saline with Tween-80",25 % of control
same,T/C,[6],25 % of control
same,T/C,[4],11 % of control
same,T/C,"endpoint: median tumor weight (est.), dose: 12.5 mg/kg/injection, schedule: Q07DX005 (ip), vehicle: saline",23 % of control
same,T/C,"endpoint: median tumor weight change, dose: 2.5 mg/kg/injection, schedule: Q01DX001 (ip), vehicle: saline",33 % of control
same,T/C,"endpoint: median tumor weight change, dose: 2.5 mg/kg/injection, schedule: Q01DX001 (ip), vehicle: suspension in saline",81 % of control
same,T/C,"endpoint: median tumor weight change, dose: 5.0 mg/kg/injection, schedule: Q01DX001 (ip), vehicle: saline",43 % of control
same,T/C,"endpoint: median tumor weight change, dose: 5.0 mg/kg/injection, schedule: Q01DX001 (ip), vehicle: suspension in saline",80 % of control
same,T/C,"endpoint: median tumor weight change, dose: 10.0 mg/kg/injection, schedule: Q01DX001 (ip), vehicle: saline with Tween-80",16 % of control and 31 % of control
same,T/C,"endpoint: median tumor weight change, dose: 10.0 mg/kg/injection, schedule: Q01DX001 (ip), vehicle: saline",32 % of control
same,T/C,"endpoint: median tumor weight change, dose: 10.0 mg/kg/injection, schedule: Q01DX001 (ip), vehicle: suspension in saline",52 % of control
same,T/C,"endpoint: median tumor weight change, dose: 20.0 mg/kg/injection, schedule: Q01DX001 (ip), vehicle: saline with Tween-80",-14 % of control
same,T/C,"endpoint: median tumor weight change, dose: 20.0 mg/kg/injection, schedule: Q01DX001 (ip), vehicle: saline",11 % of control
same,T/C,"endpoint: median tumor weight change, dose: 20.0 mg/kg/injection, schedule: Q01DX001 (ip), vehicle: suspension in saline",19 % of control
